Data as given in patent US8093183B2, “Methods for using polyol esters to control pests” (S.C. Johnson & Son, Inc., priority 2004, dated 2012).
Like-named read-outs stand apart in the source and are kept apart here.

Test system: German cockroaches
Conditions: spraying about three grams of formulation
Source text: In our experiments we created aqueous solutions of sucrose octanoate and sorbitol octanoate by diluting the more concentrated formulations provided by the aforesaid manufacturers. We created varied concentrations ranging from 0.05% through 10%.
We tested our formulations by spraying them on cockroaches, ants, crickets, silverfish, wasps, bristletails, hornets, centipedes, earwigs, spiders and sowbugs.

sucrose octanoate
kill at 24 hours (0.1% concentration): essentially no kill | kill at 24 hours (1% concentration): about 80% | kill (5% concentration): 100%
